Broadly, the IC50 is the concentration at which inhibition is half-maximal.

We go through nine molecules from article PMC8962382, “Identification of Novel Mitochondrial Pyruvate Carrier Inhibitors by Homology Modeling and Pharmacophore-Based Virtual Screening” (Biomedicines, 2022).

For assay [1], the target named is T1, mitochondrial pyruvate carrier (MPC) (Mus musculus, UniProt P63030+Q9D023).
T1 construct: 50 µg of mitochondrial protein was added to the chambers of an Oxygraph O2K; from tissue; host or cells: heart mitochondria of C57Bl/6J mice
T1 sequence (P63030 2-109 limits assumed): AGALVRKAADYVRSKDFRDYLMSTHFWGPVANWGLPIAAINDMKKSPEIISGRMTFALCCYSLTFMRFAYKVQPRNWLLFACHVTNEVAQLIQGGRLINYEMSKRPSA
T1 sequence (Q9D023 1-127): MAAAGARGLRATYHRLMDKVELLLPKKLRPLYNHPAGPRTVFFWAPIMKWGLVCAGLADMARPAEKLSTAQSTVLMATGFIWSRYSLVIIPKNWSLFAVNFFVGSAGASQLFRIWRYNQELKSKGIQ
Briefly: Inhibition of pyruvate-stimulated respiration (OCR) of isolated heart mitochondria. It counts as biochemical, mice. The following applies: for IC50: Table 1, inhibiting mitochondrial pyruvate respiration, isolated heart mitochondria. As for the experimental part: Hearts were removed from mice after CO2 asphyxiation and homogenized in buffer containing 250 mM sucrose, 10 mM Tris base, and 1 mM EDTA (pH = 7.4) by 8–10 passes of a glass-on-glass Dounce homogenizer on ice. Homogenates were centrifuged at 1000× g for 5 min at 4 °C to pellet nuclei and undisrupted cells. The supernatants were then centrifuged at 10,000× g for 10 min at 4 °C to enrich for mitochondria; this mitochondrial pellet was washed and re-pelleted twice in fresh sucrose/tris buffer. The mitochondrial pellet was then solubilized in ~150 μL of Mir05 respiration buffer (0.5 mM EGTA, 3 mM MgCl2, 60 mM lactobionic acid, 20 mM taurine, 10 mM KH2PO4, 20 mM HEPES, 110 mM sucrose and 1 g/L of fatty acid free bovine serum albumin; pH 7.1). Mitochondrial protein content was then measured by BCA; 50 µg of mitochondrial protein was added to the chambers of an Oxygraph O2K (Oroboros Instruments), with a total volume of 2 mL Mir05 buffer set to 37 °C. Respiration was stimulated with 5 mM pyruvate/2 mM malate and 2 mM ADP. After obtaining steady state respiration measurements, compounds were added to the chamber at the indicated concentrations. Then, 5 mM succinate was added to determine inhibitor specificity towards pyruvate-stimulated respiration. Steady-state rates of oxygen consumption were assessed for 1–2 min before addition of subsequent substrate or inhibitor. Oxygen consumption rates (OCR) were calculated from the change in oxygen concentration over time and normalized to 50 µg of mitochondria within the chamber.

Assay [2] deals with T2, Human MPC1 and MPC2 (WT MPC BRET constructs) (Homo sapiens, UniProt O95563+Q9Y5U8).
T2 construct: expressed in transfected cells; host or cells: U2OS cells, transient transfection
T2 sequence (Q9Y5U8 2-109 limits assumed): T1 sequence (P63030 2-109 limits assumed) with V84A, N99K, Y100H, S103T, R105T, P106A
T2 sequence (O95563 1-127): T1 sequence (Q9D023 1-127) with A2S, M17L, L23M, K26E, T73A, S105A, S123A, G125A, I126H, Q127K
Briefly: BRET-based MPC reporter assay in U2OS cells (MPC1-mCherry / MPC2-NLuc). The following applies: for BRET activity: test compounds dosed at 10 μM, U2OS cells, WT MPC BRET constructs; for BRET assay activation: WT MPC. It counts as cell-based. As for the experimental part:
Based on the success of a previously described MPC BRET reporter assay, we developed our own BRET assay using more recently adopted BRET donor and acceptor pairs. In this assay, Nanoluciferase is used as the BRET donor, and mCherry fluorescent protein is used as the BRET acceptor. Human MPC1 and MPC2 cDNA constructs with stop codon removed for C-terminal tagging were obtained from the Harvard PlasmID repository. […] Site-directed mutagenesis (Agilent) was then performed to delete linking regions between the MPC proteins and C-terminal tags.
For BRET assays, U2OS cells were transiently transfected with MPC1-mCherry and MPC2-NLuc constructs and, 24 h later, plated onto 9 columns of a clear-bottom white 96-well plate at 10,000 cells/well. As a BRET control, some cells were transfected with MPC2-NLuc only, and these cells plated on the remaining 3 columns of the 96-well plate at 10,000 cells/well. The following day, cells were washed with PBS and starved in phenol red-, glucose-, and pyruvate-free Dulbecco’s Modified Eagle’s Medium (DMEM) for 3 h. Cells were then washed in PBS and then provided PBS with 1 mM CaCl2 and 0.5 mM MgCl2 plus 2 μg/mL coelenterazine h BRET substrate, a white sticker applied to the bottom of the plate, and the plate immediately placed into a BioTek Synergy plate reader. […] After several baseline readings, the plate was ejected, and test substrates/compounds were manually pipetted into the wells. […] All data was then normalized to the values immediately prior to compound injection. Data were either reported as curves over time or average normalized BRET of the several readings immediately after compound injections. For testing pyruvate/inhibitor-binding residues, point mutations were made in MPC1 or MPC2 constructs by site-directed mutagenesis (Agilent); BRET assays were performed the same as above. All of these assays contained 96-well plates directly comparing cells expressing WT MPC and mutant BRET constructs.

The test system of assay [3] is MPC1-F66A or MPC2-K49A. Briefly: BRET-based MPC reporter assay with mutant MPC constructs. Format: cell-based, Human. The following applies: magnitude much less than in WT-expressing cells. As for the experimental part:
For BRET assays, U2OS cells were transiently transfected with MPC1-mCherry and MPC2-NLuc constructs and, 24 h later, plated onto 9 columns of a clear-bottom white 96-well plate at 10,000 cells/well. As a BRET control, some cells were transfected with MPC2-NLuc only, and these cells plated on the remaining 3 columns of the 96-well plate at 10,000 cells/well. The following day, cells were washed with PBS and starved in phenol red-, glucose-, and pyruvate-free Dulbecco’s Modified Eagle’s Medium (DMEM) for 3 h. Cells were then washed in PBS and then provided PBS with 1 mM CaCl2 and 0.5 mM MgCl2 plus 2 μg/mL coelenterazine h BRET substrate, a white sticker applied to the bottom of the plate, and the plate immediately placed into a BioTek Synergy plate reader. Luminescence was then read repeatedly from the top of the plate at emission wavelengths of 485/20 nm and 640/40 nm for NLuc and mCherry signals, respectively. After several baseline readings, the plate was ejected, and test substrates/compounds were manually pipetted into the wells. […] To calculate BRET activity, at each reading interval, the luminescence of 620 nm emission wavelength was divided by the 485 nm emission wavelength, and the values from the MPC2-Nluc-only expressing cells were subtracted from the cells expressing both constructs. […]

Substitutions are numbered along the chain they refer to. Where two headings read alike, the source gives them in different places.

Turning to `O=C(NC(Cc1c[nH]c2ccccc12)C(=O)O)C1CC1` (stereo not shown) [BE1975], the “MPC inhibitory activity” value in assay [1] (SAR statement) is “abolished activity”. In addition, the IC50 entry in assay [1] was “inactive”.
Regarding `Cc1nn(-c2ccccc2)c(C)c1/C=C(\C#N)C(=O)O` [BE1980, (E)-2-Cyano-3-(3,5-Dimethyl-1-Phenyl-4-Pyrazolyl)acrylic Acid], in assay [1] (read-out: IC50), the IC50 came to 162 nM. In assay [2], the BRET activity result is “increased BRET activity”.
Take `N#C/C(=C\c1c[nH]nc1-c1cccc(Br)c1)C(=O)O` [BE1985]: the IC50 in assay [1] (read-out: IC50) came to 638 nM. In assay [1] (ratio of IC50 values), the “fold less potent than BE1978” value was found to be 5 fold and the “fold less potent than BE1980” value turned out to be 4 fold. Besides, the BRET activity entry in assay [2] is on record as “increased BRET activity”.
For `CCOC(=O)/C(C#N)=C/c1c[nH]nc1C(C)(C)C` [BE1988], in assay [1], the IC50 result was “inactive”.
As to `N#C/C(=C\c1n[nH]cc1-c1ccccc1)C(=O)O` [BE2617, (E)-2-Cyano-3-(4-Phenyl-3-Pyrazolyl)acrylic Acid], in assay [1] (read-out: IC50), the IC50 turned out to be 39 nM. In assay [1] (ratio of IC50 values), the “fold more potent than UK-5099” value is listed as 6 fold. For the same molecule, the BRET activity entry in assay [2] was “showed activity”.
As to `Cc1ccc(-c2c[nH]nc2/C=C(\C#N)C(=O)O)cc1` [BE2623, (E)-2-Cyano-3-[4-(p-Tolyl)-3-Pyrazolyl]acrylic Acid], in assay [1] (read-out: IC50), the IC50 is 731 nM. In addition, in assay [1] (inhibiting the respiration), the “fold less potent than UK-5099” value stood at 3 fold. In addition, in assay [1] (ratio of IC50 values), the “fold less potent than BE2617” value is given as “more than 18 fold”. Moreover, the BRET activity result in assay [2] is “showed activity”.
Regarding `COc1cccc(C(=O)COc2ccc(CC3SC(=O)[N-]C3=O)cc2)c1.[K+]` (stereo not shown) [MSDC-0602K, reference compound], the BRET assay activation result in assay [2] (10 μM MSDC-0602K vs DMSO vehicle) is recorded as “activated”. The “BRET activity in mutants” value in assay [3] is “small, but significant, activation of BRET activity”.
For `N#C/C(=C\c1cn(-c2ccccc2)c2ccccc12)C(=O)O` [UK-5099, reference compound], the IC50 in assay [1] (read-out: IC50) was 241 nM. In assay [2] (5 μM UK-5099 vs DMSO vehicle), the BRET assay activation entry is on record as “activated”. In addition, the “BRET activity in mutants” value in assay [3] was “small, but significant, activation of BRET activity”.
Take `CC(=O)C(=O)O` [pyruvate]: the BRET assay activation entry in assay [2] (5 mM pyruvate vs DMSO vehicle) is reported as “activated”.
